The source of these data is patent US10501412B2, “Conjugates of cell binding molecules with cytotoxic agents” (HANGZHOU DAC BIOTECH CO., LTD., priority 2012, dated 2019).

For this test the following is noted: generated by hydrolysis of Phe and Tyr in the animal blood circulation.

For Mep-Ile-Tuv [Mep-Ile-Tuv moiety], the “fold less potency than tubulysin A and D” value is recorded as “over 200 fold”.
